The text below walks through data of patent US20050208125A1, “Substantially pure solid form of the enol tautomer of 3-indolypyruvic acid for use in the treatmetn of central nervous system disturbances” (priority 2002, published 2005).

The test system of data set [1] is LAN5 human neuroblastoma cells. Description: Neuronal cell sprouting (neurite length). The data set is classed as cell-based. The conditions noted are these: 10 μM, 7 days; for average length of the neurites: ± SD, untreated 21.8 ± 8.8. As for the experimental part:
LAN5 human neuroblastoma cells were seeded in 6-well plates (25.000 cells/well) in DMEM (Dulbecco's Modified Eagle's Medium) medium, additioned with 10% -fetal serum and 40 micrograms/ml gentamycin. After 24 hours, the enol tautomer of 3-indolylpyruvic acid or its derivatives, at an end concentration of 10 μM was added to the culture medium. The treatment was continued for 7 days, with medium replacement and addition of the compound under test every three days. At +7 days the cells were photopgraphed, using a Leitz Dialux 20 microscope. Then, neurite length was measured.
The results, reported in the following Table, express, in microns, the average length of the neurites for each treatment; ± is the standard deviation: […]

For data set [2] the following is noted: cited from earlier work.
Data set [3] relates to Human melanoma cells (A2058 line). The data set is described as follows: Melanoma cell invasion through Matrigel. The conditions noted are these: mean of three experiments ± SD. The data set is classed as cell-based. From the text: Matrigel is an extracellular biological matrix extracted from the Englebreth-Holm-Swarm murine sarcoma, composed of the major components of the basement membrane like laminin, entactin, collagen IV and proteoglycans. At room temperature, Matrigel forms a gel that can promote the growth of primary and continuous cell lines, and moreover can act as medium (substrate) for the adhesion, the differentiation, the migration and the invasion of tumor cell lines. Due to such features, a Matrigel test is commonly used in order to characterize the activity of substances capable of interfering with the motility of tumor cells and of inflammatory response cells. The test is conducted in wells partitioned by an 8 micron pore size membrane: Matrigel (12.4 micrograms) is uniformly spread on the membrane, whereas a chemoattractant (600 microliters), consisting of the supernatant of a murine hembryo cell line (3T3) is inserted in the bottom section of the well. The cells to be tested are seeded in the top section of the well, whereas the compounds that could interfere with their motility are placed above as well as below the membrane, so as to prevent the formation of a concentration gradient. At the end of the experiment, the cells that have crossed the membrane are counted.
Human melanoma cells (A2058 line) were cultured in MEM medium, in a 5% CO2 at 37° C. Having reached the desired growth level, the (100.000) cells were seeded in the top section of the well. The enol of 3-indolylpyruvic acid and its salts, solubilized in the cell culture medium were placed in the top and bottom section of the well.

The nature of data set [4]: Incubation in rat tissue homogenates, enol form versus keto form. The data set is classed as in vitro ADME. The conditions noted are these: rat tissue homogenates. From the text: The near-pure enol tautomer of 3-indolylpyruvic acid, obtained by the method described above in examples 1 and 2, was investigated on rat tissue homogenates, in order to highlight its participation in the methabolic pathways characterizing the use of tryptophan and of its derivatives in mammalian cells. […] This phenomenon, ascribed to the presence in biological fluids of a specific tautomerase already reported in literature, allows the enol form to be subjected to biochemical transformations by specific enzymes active on the indoles. In particular, when the enol form of the ketoacid is incubated in rat liver homogenates, a gradual transformation of the enol of 3-indolylpyruvic acid in tryptophan is observed: the transformation is rather linear in time, is independent from the pH—at least in the 6.5÷7.5 interval—and it leads to the conversion of over the 50% of the ketoacid in 5 hours.

The subject of a further data set is rats. The data set is described as follows: Pharmacological tests in rats, oral and IP. The data set is classed as in vivo, rat. The conditions noted are these: keto form solubilized in 0.1M NaOH.

For the compound `O=C(O)Cc1c[nH]c2ccccc12` [3-Indolylacetic acid, reference compound], in data set [1], the “effect on neurite length (in words)” value is given as “do not influence neurite length” and the “average length of the neurites” value was 23.3 ± 10.5 micrometers.
For `O=C(O)C(O)Cc1c[nH]c2ccccc12` (stereo not shown) [3-Indolyllactic acid], in data set [1], the “effect on neurite length (in words)” value is “noticeable effects on neurite length” and the “average length of the neurites” value was 39.7 ± 11.8 micrometers.
As for `O=C(O)C(=O)Cc1c[nH]c2ccccc12` [3-indolylpyruvic acid], in data set [2] (Schwarz 1961), the “time in which UV spectrum of the enol tautomer converted to that of the keto tautomer” value is given as “over 2 hours”. In addition, the “time in which largely converted to the keto form” value in data set [2] (solution at pH 8.0, Schwarz and Bitancourt 1960) was 20 min.
Turning to `O=C(O)Cc1c[nH]c2ccc(O)cc12` [5-Hydroxy-Indolylacetic acid, reference compound], in data set [1], the “effect on neurite length (in words)” value is “do not influence neurite length” and the “average length of the neurites” value came to 25.7 ± 13.2 micrometers.
On to `O=C([O-])C(O)=Cc1c[nH]c2ccccc12.O=C([O-])C(O)=Cc1c[nH]c2ccccc12.[Ca+2]` [Ca salt, calcium salt of the enol form of 3-indolylpyruvic acid], for which the results for the Inhibition % in data set [3] (70 μM) and in data set [3] (140 μM) were 38 ± 10% and 82 ± 6%, respectively. The “average length of the neurites” value in data set [1] stood at 32.7 ± 8.3 micrometers.
In the case of `O=C([O-])C(O)=Cc1c[nH]c2ccccc12.[K+]` [K salt, potassium salt of the enol tautomer of 3-indolylpyruvic acid], the Inhibition % is 51 ± 3% in data set [3] (125 μM) and 78 ± 3% in data set [3] (250 μM). In addition, the “average length of the neurites” value in data set [1] is 44.1 ± 12.1 micrometers.
As for `O=C([O-])C(O)=Cc1c[nH]c2ccccc12.[Li+]` [Li salt, lithium salt of the enol tautomer of 3-indolylpyruvic acid], the Inhibition % in data set [3] (125 μM) is 48 ± 7%; in data set [3] (250 μM) it was 91 ± 5%. Moreover, the “average length of the neurites” value in data set [1] is given as 29.4 ± 8.5 micrometers.
As to `O=C([O-])C(O)=Cc1c[nH]c2ccccc12.O=C([O-])C(O)=Cc1c[nH]c2ccccc12.[Mg+2]` [Mg salt, magnesium salt of the enol form of 3-indolylpyruvic acid], the Inhibition % in data set [3] (65 μM) was 46 ± 14%; in data set [3] (130 μM) it was 66 ± 7%. Besides, the “average length of the neurites” value in data set [1] is 40.1 ± 17.5 micrometers.
Turning to `O=C([O-])C(O)=Cc1c[nH]c2ccccc12.[Na+]` [Na salt, sodium salt of the enol form of 3-indolylpyruvic acid], the results for the Inhibition % in data set [3] (125 μM) and in data set [3] (250 μM) were 52 ± 1% and 78 ± 3%, respectively. Moreover, the “average length of the neurites” value in data set [1] is 28.3 ± 16.4 micrometers.
In the case of `O=C(O)C(=O)Cc1c[nH]c2ccccc12` [keto form, reference compound], the “transformation to tryptophan or to 3-indolyl-lactic acid” value in data set [4] is given as “no significant transformations”. For the same compound, the “effects on the considered pharmacological parameters” value with rats is recorded as “no apparent effects”.
